Assay results taken from patent US20240383915A1, “OXAZEPINE COMPOUNDS AND USES THEREOF IN THE TREATMENT OF CANCER” (Genentech, Inc., priority 2021, published 2024).
Read-outs that look alike come from different tables or passages of the source.

Legend:
[1] = system: SW480 cells; assay: SW480 proliferation assay; type: cell-based; conditions: read-out: SW480 Prolif IC50 (G12V)
[2] = biological target: KRas (Homo sapiens (Human), UniProt P01116); assay: KRas GDP HTRF (BODIPY-GDP exchange TR-FRET); type: biochemical
Summary of the method: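 Inhibition of SOS1-mediated exchange of BODIPY-GDP on KRAS G12D, started with 3 nM recombinant human SOS1 and 300 nM BODIPY-GDP and read after 60 min. TR-FRET excitation 337 nm, ratio 520/490 nm ×10,000. IC50 from 4-parameter Hill fit of normalized data.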

[3] = biological target: KRas(G12V) (Homo sapiens (Human), UniProt P01116, G12V); assay: KRas(G12V) GDP HTRF (BODIPY-GDP exchange TR-FRET); type: biochemical
[4] = system: PC-9 cells; assay: PC9 proliferation assay; type: cell-based, human; conditions: read-out: PC9 Prolif IC50 (G12V)

Chain of KRas (P01116-2 other isoform, or with tags, fused parts or gaps): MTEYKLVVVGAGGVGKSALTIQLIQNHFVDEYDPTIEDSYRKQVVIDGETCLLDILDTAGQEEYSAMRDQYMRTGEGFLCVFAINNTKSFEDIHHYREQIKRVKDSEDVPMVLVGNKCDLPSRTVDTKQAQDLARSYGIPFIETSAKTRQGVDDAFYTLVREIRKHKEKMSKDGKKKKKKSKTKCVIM
Chain of KRas(G12V) (P01116-2 other isoform, or with tags, fused parts or gaps G12V): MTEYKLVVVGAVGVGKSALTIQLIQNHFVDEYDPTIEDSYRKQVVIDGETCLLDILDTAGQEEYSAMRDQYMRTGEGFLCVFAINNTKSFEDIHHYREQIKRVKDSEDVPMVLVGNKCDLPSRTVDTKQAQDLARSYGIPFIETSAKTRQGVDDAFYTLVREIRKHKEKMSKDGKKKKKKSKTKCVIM

| SMILES | IC50 ([1]; Homo sapiens, SW480, SW480) [nM] | IC50 [2] [nM] | IC50 [3] [nM] | IC50 ([4]; Homo sapiens, PC-9, PC9) [nM] | IC50 ([1]; SW480) [nM] | IC50 ([4]; PC9) [nM] |
| --- | --- | --- | --- | --- | --- | --- |
| Cc1cc(N)nc(-c2c(Cl)c3c4c(nc(OC[C@H]5CC[C@@H]6COCCN65)nc4c2F)N([C@H](C)c2cncnc2N)CCO3)c1C(F)(F)F (atropisomer, axis not shown; (aR)) [Example 102b, 5-((R)-1-((R)-9-(6-amino-4-methyl-3-(trifluoromethyl)pyridin-2-yl)-8-chloro-10-fluoro-2-(((6R,8aR)-hexahydro-1H-pyrrolo[2,1-c][1,4]oxazin-6-yl)methoxy)-5,6-dihydro-4H-[1,4]oxazepino[5,6,7-de]quinazolin-4-yl)ethyl)pyrimidin-4-amine] | 100 | 0.49 | 0.17 | 8700 |  |  |
| Cc1cc(N)nc(-c2c(Cl)c3c4c(nc(OC[C@H]5CC[C@@H]6COCCCN65)nc4c2F)N([C@H](C)c2cccnc2N)CCO3)c1C(F)(F)F (atropisomer, axis not shown; (aR)) [Example 120b, 6-((R)-4-((R)-1-(2-aminopyridin-3-yl)ethyl)-8-chloro-10-fluoro-2-(((7R,9aR)-hexahydro-1H,3H-pyrrolo[2,1-c][1,4]oxazepin-7-yl)methoxy)-5,6-dihydro-4H-[1,4]oxazepino[5,6,7-de]quinazolin-9-yl)-4-methyl-5-(trifluoromethyl)pyridin-2-amine] | 20 | 0.2 | 0.08 | 3000 |  |  |
| Cc1cc(N)nc(-c2c(Cl)c3c4c(nc(OC[C@@]56CCCN5C[C@H](F)C6)nc4c2F)N([C@H](C)c2cncc(N)c2)CCO3)c1C(F)(F)F (atropisomer, axis not shown; (aS)) [Example 45, (R)-6-(4-((S)-1-(5-aminopyridin-3-yl)ethyl)-8-chloro-10-fluoro-2-(((2R,7aS)-2-fluorotetrahydro-1H-pyrrolizin-7a(5H)-yl)methoxy)-5,6-dihydro-4H-[1,4]oxazepino[5,6,7-de]quinazolin-9-yl)-4-methyl-5-(trifluoromethyl)pyridin-2-amine] | 50 | 0.27 | 0.23 | 6000 |  |  |
| Cc1cc(N)nc(-c2c(Cl)c3c4c(nc(OC[C@@]56CCCN5C[C@H](F)C6)nc4c2F)N([C@@H]2CCCc4ccnc(N)c42)CCO3)c1C(F)(F)F (atropisomer, axis not shown; (aS)) [Example 65a, (R)-8-((R)-9-(6-amino-4-methyl-3-(trifluoromethyl)pyridin-2-yl)-8-chloro-10-fluoro-2-(((2R,7aS)-2-fluorotetrahydro-1H-pyrrolizin-7a(5H)-yl)methoxy)-5,6-dihydro-4H-[1,4]oxazepino[5,6,7-de]quinazolin-4-yl)-5,6,7,8-tetrahydroisoquinolin-1-amine] | 2.6 | 0.25 | 0.1 | 940 |  |  |
| Cc1cc(N)nc(-c2c(F)c3c4c(nc(OC[C@@]56CCCN5C[C@H](F)C6)nc4c2F)N([C@H](C)c2cccnc2N)CCO3)c1C(F)(F)F (atropisomer, axis not shown; (aS)) [Example 66a, 6-((R)-4-((R)-1-(2-aminopyridin-3-yl)ethyl)-8,10-difluoro-2-(((2R,7aS)-2-fluorotetrahydro-1H-pyrrolizin-7a(5H)-yl)methoxy)-5,6-dihydro-4H-[1,4]oxazepino[5,6,7-de]quinazolin-9-yl)-4-methyl-5-(trifluoromethyl)pyridin-2-amine] | 3.1 | 0.12 | 0.05 | 2800 |  |  |
| CNc1cnc(N)c([C@@H](C)N2CCOc3c(Cl)c(-c4nc(N)cc(C)c4C(F)(F)F)c(F)c4nc(OC[C@@]56CCCN5C[C@H](F)C6)nc2c34)c1 (atropisomer, axis not shown; (aS)) [Example 79, 3-((R)-1-((R)-9-(6-amino-4-methyl-3-(trifluoromethyl)pyridin-2-yl)-8-chloro-10-fluoro-2-(((2R,7aS)-2-fluorotetrahydro-1H-pyrrolizin-7a(5H)-yl)methoxy)-5,6-dihydro-4H-[1,4]oxazepino[5,6,7-de]quinazolin-4-yl)ethyl)-N^5-methylpyridine-2,5-diamine] | 2.4 | 0.34 | 0.22 | 3100 |  |  |
| Cc1cc(N)nc(-c2c(Cl)c3c4c(nc(OC[C@@]56CCCN5C[C@H](F)C6)nc4c2F)N([C@@H](C)c2nccnc2N)CCO3)c1C(F)(F)F (atropisomer, axis not shown; (aS)) [Example 80, 3-((S)-1-((R)-9-(6-amino-4-methyl-3-(trifluoromethyl)pyridin-2-yl)-8-chloro-10-fluoro-2-(((2R,7aS)-2-fluorotetrahydro-1H-pyrrolizin-7a(5H)-yl)methoxy)-5,6-dihydro-4H-[1,4]oxazepino[5,6,7-de]quinazolin-4-yl)ethyl)pyrazin-2-amine] | 940 | 23.6 | 8.2 | 1200 |  |  |
| Cc1cc(N)nc(-c2c(Cl)c3c4c(nc(OC[C@@]56CCCN5C[C@H](F)C6)nc4c2F)N([C@H](C)c2cncnc2N)CCO3)c1C(F)(F)F (atropisomer, axis not shown; (aS)) [Example 81, 5-((R)-1-((R)-9-(6-amino-4-methyl-3-(trifluoromethyl)pyridin-2-yl)-8-chloro-10-fluoro-2-(((2R,7aS)-2-fluorotetrahydro-1H-pyrrolizin-7a(5H)-yl)methoxy)-5,6-dihydro-4H-[1,4]oxazepino[5,6,7-de]quinazolin-4-yl)ethyl)pyrimidin-4-amine] | 6.1 | 0.0659 | 0.067 | 7800 |  |  |

Results, then the molecule that gave them:

| IC50 ([1]; Homo sapiens, SW480, SW480) [nM] | IC50 [2] [nM] | IC50 [3] [nM] | IC50 ([4]; Homo sapiens, PC-9, PC9) [nM] | IC50 ([1]; SW480) [nM] | IC50 ([4]; PC9) [nM] | SMILES |
| --- | --- | --- | --- | --- | --- | --- |
| 220 | 2.5 | 0.45 | 10000 |  |  | COc1nc2c3c(c(Cl)c(-c4nc(N)cc(C)c4C(F)(F)F)c(F)c3n1)OCCN2[C@H](C)c1cccnc1N (atropisomer, axis not shown) [Example 155, 6-((R)-4-((R)-1-(2-aminopyridin-3-yl)ethyl)-8-chloro-10-fluoro-2-methoxy-5,6-dihydro-4H-[1,4]oxazepino[5,6,7-de]quinazolin-9-yl)-4-methyl-5-(trifluoromethyl)pyridin-2-amine] |
| 310 | 0.65 | 0.19 | 16000 |  |  | Cc1cc(N)nc(-c2c(Cl)c3c4c(nc(OCCO)nc4c2F)N([C@H](C)c2cccnc2N)CCO3)c1C(F)(F)F (atropisomer, axis not shown) [Example 156, 2-(((R)-9-(6-amino-4-methyl-3-(trifluoromethyl)pyridin-2-yl)-4-((R)-1-(2-aminopyridin-3-yl)ethyl)-8-chloro-10-fluoro-5,6-dihydro-4H-[1,4]oxazepino[5,6,7-de]quinazolin-2-yl)oxy)ethan-1-ol] |
| 28 | 0.18 | 0.089 | 3100 |  |  | Cc1cc(N)nc(-c2c(Cl)c3c4c(nc(OC[C@H]5CC[C@@H]6COCCN65)nc4c2F)N([C@H](C)c2cccnc2N)CCO3)c1C(F)(F)F (atropisomer, axis not shown; (aR)) [Example 87b, 6-((R)-4-((R)-1-(2-aminopyridin-3-yl)ethyl)-8-chloro-10-fluoro-2-(((6R,8aR)-hexahydro-1H-pyrrolo[2,1-c][1,4]oxazin-6-yl)methoxy)-5,6-dihydro-4H-[1,4]oxazepino[5,6,7-de]quinazolin-9-yl)-4-methyl-5-(trifluoromethyl)pyridin-2-amine] |
| 140 | 2.2 | 0.81 | 6400 |  |  | Cc1cc(N)nc(-c2c(Cl)c3c4c(nc(OC[C@H]5CC[C@@H]6COC(F)(F)CN56)nc4c2F)N([C@H](C)c2cccnc2N)CCO3)c1C(F)(F)F (atropisomer, axis not shown; (aR)) [Example 91b, 6-((R)-4-((R)-1-(2-aminopyridin-3-yl)ethyl)-8-chloro-2-(((6R,8aR)-3,3-difluorohexahydro-1H-pyrrolo[2,1-c][1,4]oxazin-6-yl)methoxy)-10-fluoro-5,6-dihydro-4H-[1,4]oxazepino[5,6,7-de]quinazolin-9-yl)-4-methyl-5-(trifluoromethyl)pyridin-2-amine] |
|  | 0.091 | 0.04 |  | 1.4 | 1500 | Cc1cc(N)nc(-c2c(Cl)c3c4c(nc(OC[C@@]56CCCN5C[C@H](F)C6)nc4c2F)N([C@H](C)c2cccnc2N)CCO3)c1C(F)(F)F (atropisomer, axis not shown; (aS)) [Example 48, 6-(4-((R)-1-(2-aminopyridin-3-yl)ethyl)-8-chloro-10-fluoro-2-(((2R,7aS)-2-fluoro-hexahydro-1H-pyrrolizin-7a-yl)methoxy)-5,6-dihydro-4H-[1,4]oxazepino[5,6,7-de]quinazolin-9-yl)-4-methyl-5-(trifluoromethyl)pyridin-2-amine] |
| 1.1 | 0.066 | 0.05 | 890 |  |  | Cc1c(F)c(N)nc(-c2c(Cl)c3c4c(nc(OC[C@@]56CCCN5C[C@H](F)C6)nc4c2F)N([C@H](C)c2cccnc2N)CCO3)c1C(F)(F)F (atropisomer, axis not shown; (aS)) [Example 75a, 6-((R)-4-((R)-1-(2-aminopyridin-3-yl)ethyl)-8-chloro-10-fluoro-2-(((2R,7aS)-2-fluorotetrahydro-1H-pyrrolizin-7a(5H)-yl)methoxy)-5,6-dihydro-4H-[1,4]oxazepino[5,6,7-de]quinazolin-9-yl)-3-fluoro-4-methyl-5-(trifluoromethyl)pyridin-2-amine] |
